Results taken from patent publication US6737383B1, “Herbicidal oxadiazolidines” (priority 1999, dated 2004).

What was measured:
bedstraw = test: Test B pre/postemergence bedstraw; type: in vivo, Galium aparine
Outline: (§1)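 Herbicidal effect was estimated by eye on a ten-point control scale after plants spent twelve to sixteen days in a greenhouse following soil or foliar treatment. Foliar sprays targeted plants at one to four leaves; all doses were formulated in a non-phytotoxic solvent with surfactant.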

blackgrass = test: Test B pre/postemergence blackgrass; type: in vivo, Alopecurus myosuroides
Outline: as §1

surinam grass = test: Test B pre/postemergence surinam grass; type: in vivo, Brachiaria decumbens
Outline: as §1

corn = test: Test B pre/postemergence corn; type: in vivo, Zea mays
Outline: as §1

crabgrass = test: Test B pre/postemergence crabgrass; type: in vivo, Digitaria sanguinalis
Outline: as §1

pigweed = test: Test B pre/postemergence pigweed; type: in vivo, Amaranthus retroflexus
Outline: as §1

rape = test: Test B pre/postemergence rape; type: in vivo, Brassica napus
Outline: as §1

soybean = test: Test B pre/postemergence soybean; type: in vivo, Glycine max
Outline: as §1

sugar beet = test: Test B pre/postemergence sugar beet; type: in vivo, Beta vulgaris
Outline: as §1

velvetleaf = test: Test B pre/postemergence velvetleaf; type: in vivo, Abutilon theophrasti
Outline: as §1

wheat = test: Test B pre/postemergence wheat; type: in vivo, Triticum aestivum
Outline: as §1

wild oat = test: Test B pre/postemergence wild oat; type: in vivo, Avena fatua
Outline: as §1

purple nutsedge = test: Test B pre/postemergence purple nutsedge; type: in vivo, Cyperus rotundus
Outline: as §1

rice = test: Test B flood test rice; type: in vivo, Oryza sativa
Outline: (§2)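 Plants were grown to the 2-leaf stage before treatment with test chemical, then held in a greenhouse for twelve to sixteen days. Injury was visually rated against untreated controls on a 0–10 scale, where 0 is no effect and 10 is complete control.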

smallflower flatsedge = test: Test B flood test smallflower flatsedge; type: in vivo, Cyperus difformis
Outline: as §2

duck salad = test: Test B flood test duck salad; type: in vivo, Heteranthera limosa
Outline: as §2

[1] = Postemergence, Rate 125 g/ha, scale 0 to 10, 0 is no effect, 10 is complete control
[2] = Preemergence, Rate 62 g/ha, scale of 0 to 10 where 0 is no effect and 10 is complete control
[3] = Preemergence, Rate 250 g/ha, scale of 0 to 10 where 0 is no effect and 10 is complete control
[4] = Preemergence, Rate 500 g/ha, scale of 0 to 10 where 0 is no effect and 10 is complete control
[5] = Rate 62 g/ha, Postemergence, scale 0 to 10 (0 no effect, 10 complete control)
[6] = Rate 250 g/ha, Postemergence, scale of 0 to 10 where 0 is no effect and 10 is complete control
[7] = Rate 500 g/ha, Postemergence, scale 0 to 10, 0 no effect, 10 complete control
[8] = Rate 62 g/ha, headed Pre-emergence (flood test species), scale 0 to 10 (0 no effect, 10 complete control)
[9] = Rate 125 g/ha, Pre-emergence, flood test species, scale 0 to 10 where 0 is no effect and 10 is complete control
[10] = Rate 250 g/ha, Pre-emergence, flood-test species, scale 0 to 10, 0 is no effect, 10 is complete control
[11] = Rate 500 g/ha, Pre-emergence, flood test species, scale 0 to 10 (0 no effect, 10 complete control)

Question: What does the source list for `Cc1c(-n2c(=O)on(C(=O)N(c3ccc(F)cc3)C(C)C)c2=O)ccc2ccccc12` [Compound 338]?
Answer: Plant response rating, Bedstraw (bedstraw; [1]): 2; Bedstraw plant response rating (bedstraw; [2]): 0; Bedstraw plant response rating (0 to 10 scale) (bedstraw; Preemergence, Rate 125 g/ha): 0; Bedstraw plant response rating (bedstraw; [3]): 0; Bedstraw plant response rating (bedstraw; [4]): 0; Bedstraw plant response rating (bedstraw; [5]): 0; Plant response rating, Bedstraw (bedstraw; [6]): 2; Plant response rating, Bedstraw (bedstraw; [7]): 5; Plant response rating, Blackgrass (blackgrass; [1]): 0; Blackgrass plant response rating (blackgrass; [2]): 0; Blackgrass plant response rating (0 to 10 scale) (blackgrass; Preemergence, Rate 125 g/ha): 0; Blackgrass plant response rating (blackgrass; [3]): 0; Blackgrass plant response rating (blackgrass; [4]): 0; Blackgrass plant response rating (blackgrass; [5]): 0; Plant response rating, Blackgrass (blackgrass; [6]): 0; Plant response rating, Blackgrass (blackgrass; [7]): 0; Plant response rating, B. signalgrass (surinam grass; [1]): 0; B. signalgrass plant response rating (surinam grass; [2]): 0; B. signalgrass plant response rating (0 to 10 scale, 0 is no effect, 10 is complete control) (surinam grass; Preemergence, Rate 125 g/ha): 0; B. signalgrass plant response rating (surinam grass; [3]): 0; B. signalgrass plant response rating (surinam grass; [4]): 0; B. signalgrass plant response rating (surinam grass; [5]): 0; Plant response rating, B. signalgrass (surinam grass; [6]): 0; Plant response rating, B. signalgrass (surinam grass; [7]): 0; Plant response rating, Corn (corn; [1]): 0; Corn plant response rating (corn; [2]): 0; Corn plant response rating (0 to 10 scale) (corn; Preemergence, Rate 125 g/ha): 0; Corn plant response rating (corn; [3]): 0; Corn plant response rating (corn; [4]): 0; Corn plant response rating (corn; [5]): 0; Plant response rating, Corn (corn; [7]): 0; Plant response rating, Crabgrass (crabgrass; [1]): 0; Crabgrass plant response rating (crabgrass; [2]): 0; Crabgrass plant response rating (0 to 10 scale) (crabgrass; Preemergence, Rate 125 g/ha): 0; Crabgrass plant response rating (crabgrass; [3]): 0; Crabgrass plant response rating (crabgrass; [4]): 0; Crabgrass plant response rating (crabgrass; [5]): 0; Plant response rating, Crabgrass (crabgrass; [7]): 0; Plant response rating, Redroot pigweed (pigweed; [1]): 0; Redroot pigweed plant response rating (pigweed; [2]): 0; Redroot pigweed plant response rating (0 to 10 scale) (pigweed; Preemergence, Rate 125 g/ha): 0; Redroot pigweed plant response rating (pigweed; [3]): 0; Redroot pigweed plant response rating (pigweed; [4]): 0; Redroot pigweed plant response rating (pigweed; [5]): 0; Plant response rating, Redroot pigweed (pigweed; [7]): 0; Plant response rating, Rape (rape; [1]): 0; Rape plant response rating (rape; [2]): 0; Rape plant response rating (0 to 10 scale) (rape; Preemergence, Rate 125 g/ha): 0; Rape plant response rating (rape; [3]): 0; Rape plant response rating (rape; [4]): 0; Rape plant response rating (rape; [5]): 0; Plant response rating, Rape (rape; [7]): 0; Plant response rating, Soybean (soybean; [1]): 1; Soybean plant response rating (soybean; [2]): 0; Soybean plant response rating (0 to 10 scale) (soybean; Preemergence, Rate 125 g/ha): 0; Soybean plant response rating (soybean; [3]): 0; Soybean plant response rating (soybean; [4]): 0; Soybean plant response rating (soybean; [5]): 1; Plant response rating, Soybean (soybean; [7]): 2; Plant response rating, Sugarbeets (sugar beet; [1]): 0; Sugarbeets plant response rating (sugar beet; [2]): 0; Sugarbeets plant response rating (0 to 10 scale) (sugar beet; Preemergence, Rate 125 g/ha): 0; Sugarbeets plant response rating (sugar beet; [3]): 0; Sugarbeets plant response rating (sugar beet; [4]): 0; Sugarbeets plant response rating (sugar beet; [5]): 0; Plant response rating, Sugarbeets (sugar beet; [7]): 0; Plant response rating, Velvetleaf (velvetleaf; [1]): 0; Velvetleaf plant response rating (velvetleaf; [2]): 0; Velvetleaf plant response rating (0 to 10 scale) (velvetleaf; Preemergence, Rate 125 g/ha): 0; Velvetleaf plant response rating (velvetleaf; [3]): 0; Velvetleaf plant response rating (velvetleaf; [4]): 0; Velvetleaf plant response rating (velvetleaf; [5]): 0; Plant response rating, Velvetleaf (velvetleaf; [7]): 0; Plant response rating, Wheat (wheat; [1]): 0; Wheat plant response rating (wheat; [2]): 0; Wheat plant response rating (0 to 10 scale) (wheat; Preemergence, Rate 125 g/ha): 0; Wheat plant response rating (wheat; [3]): 0; Wheat plant response rating (wheat; [4]): 0; Wheat plant response rating (wheat; [5]): 0; Plant response rating, Wheat (wheat; [7]): 0; Plant response rating, Wild oats (wild oat; [1]): 0; Wild oats plant response rating (wild oat; [2]): 0; Wild oats plant response rating (0 to 10 scale) (wild oat; Preemergence, Rate 125 g/ha): 0; Wild oats plant response rating (wild oat; [3]): 0; Wild oats plant response rating (wild oat; [4]): 0; Wild oats plant response rating (wild oat; [5]): 0; Plant response rating, Wild oats (wild oat; [7]): 0; Plant response rating, Nutsedge (purple nutsedge; [1]): 0; Nutsedge plant response rating (purple nutsedge; [2]): 0; Nutsedge plant response rating (0 to 10 scale) (purple nutsedge; Preemergence, Rate 125 g/ha): 0; Nutsedge plant response rating (purple nutsedge; [3]): 0; Nutsedge plant response rating (purple nutsedge; [4]): 0; Nutsedge plant response rating (purple nutsedge; [5]): 0; Plant response rating, Nutsedge (purple nutsedge; [7]): 0; Rice plant response rating (rice; [8]): 0; Rice plant response rating (rice; [9]): 0; Rice plant response rating (rice; [10]): 0; Rice plant response rating (rice; [11]): 0; S. Flatsedge plant response rating (smallflower flatsedge; [8]): 0; S. Flatsedge plant response rating (smallflower flatsedge; [9]): 0; S. Flatsedge plant response rating (smallflower flatsedge; [10]): 0; S. Flatsedge plant response rating (smallflower flatsedge; [11]): 0; Ducksalad plant response rating (duck salad; [8]): 0; Ducksalad plant response rating (duck salad; [9]): 0; Ducksalad plant response rating (duck salad; [10]): 0; Ducksalad plant response rating (duck salad; [11]): 0
